Read-outs that look alike come from different tables or passages of the source.
Columns and labels:
[1] = test system: human venous whole blood (IFN-γ); assay: Human whole blood IFN-γ assay; type: cell-based
Experimental: Human venous whole blood (22.5 μL per well), obtained from healthy donors, was pre-treated with compounds for one hour at 37° C. in a humidified 95% air/5% CO2 incubator. The blood was stimulated with 2.5 μL anti-human CD3 and anti-CD28 mAb at a final concentration of 1 μg/mL each for 24 hours at 37° C. IFN-γ in the supernatants was measured using AlphLISA kit (Cat #AL217).

human DGKζ = human DGKζ (Homo sapiens (Human), UniProt Q13574); assay: DGKζ LIPGLO assay (extruded liposome substrate, ADP-Glo luminescence); type: biochemical
human DGKα = human DGKα (Homo sapiens (Human), UniProt P23743); assay: DGKα LIPGLO assay (extruded liposome substrate, ADP-Glo luminescence); type: biochemical
[2] = whole blood, normalized to 3 μM reference compound as 100% activation, read-out: IFN-γ Whole Blood Normalized EC50
[3] = liposome assay, read-out: DGK zeta LIPGLO IC50
[4] = liposome assay, read-out: DGK alpha LIPGLO IC50
[5] = Homo sapiens, whole blood, normalized to 3 μM reference compound as 100% activation, read-out: IFN-γ Whole Blood Normalized EC50
[6] = liposome (LIPGLO) assay, read-out: DGK zeta (liposome assay) IC50
[7] = liposome (LIPGLO) assay, read-out: DGK alpha (liposome assay) IC50

human DGKα, sequence (P23743 whole entry, looked up): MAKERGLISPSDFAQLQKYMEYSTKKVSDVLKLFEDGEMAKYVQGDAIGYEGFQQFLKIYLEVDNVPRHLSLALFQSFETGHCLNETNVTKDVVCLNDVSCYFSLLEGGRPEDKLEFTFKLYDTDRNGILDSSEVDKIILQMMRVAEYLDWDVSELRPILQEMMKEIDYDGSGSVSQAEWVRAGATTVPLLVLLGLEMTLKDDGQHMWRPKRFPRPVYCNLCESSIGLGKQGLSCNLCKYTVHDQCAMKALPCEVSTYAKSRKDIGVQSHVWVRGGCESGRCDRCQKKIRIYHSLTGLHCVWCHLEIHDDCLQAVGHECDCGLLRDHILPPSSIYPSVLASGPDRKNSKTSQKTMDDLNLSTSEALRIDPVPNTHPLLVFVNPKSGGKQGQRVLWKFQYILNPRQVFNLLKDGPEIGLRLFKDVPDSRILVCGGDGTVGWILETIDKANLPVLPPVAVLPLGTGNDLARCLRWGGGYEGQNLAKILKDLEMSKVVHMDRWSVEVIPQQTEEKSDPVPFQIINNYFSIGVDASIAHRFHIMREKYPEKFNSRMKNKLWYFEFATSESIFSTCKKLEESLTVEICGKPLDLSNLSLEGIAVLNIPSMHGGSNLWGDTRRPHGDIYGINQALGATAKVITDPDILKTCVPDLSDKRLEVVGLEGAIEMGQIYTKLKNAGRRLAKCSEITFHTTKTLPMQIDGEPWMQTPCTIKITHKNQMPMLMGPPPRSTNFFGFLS
human DGKζ, sequence (Q13574 other isoform, or with tags, fused parts or gaps): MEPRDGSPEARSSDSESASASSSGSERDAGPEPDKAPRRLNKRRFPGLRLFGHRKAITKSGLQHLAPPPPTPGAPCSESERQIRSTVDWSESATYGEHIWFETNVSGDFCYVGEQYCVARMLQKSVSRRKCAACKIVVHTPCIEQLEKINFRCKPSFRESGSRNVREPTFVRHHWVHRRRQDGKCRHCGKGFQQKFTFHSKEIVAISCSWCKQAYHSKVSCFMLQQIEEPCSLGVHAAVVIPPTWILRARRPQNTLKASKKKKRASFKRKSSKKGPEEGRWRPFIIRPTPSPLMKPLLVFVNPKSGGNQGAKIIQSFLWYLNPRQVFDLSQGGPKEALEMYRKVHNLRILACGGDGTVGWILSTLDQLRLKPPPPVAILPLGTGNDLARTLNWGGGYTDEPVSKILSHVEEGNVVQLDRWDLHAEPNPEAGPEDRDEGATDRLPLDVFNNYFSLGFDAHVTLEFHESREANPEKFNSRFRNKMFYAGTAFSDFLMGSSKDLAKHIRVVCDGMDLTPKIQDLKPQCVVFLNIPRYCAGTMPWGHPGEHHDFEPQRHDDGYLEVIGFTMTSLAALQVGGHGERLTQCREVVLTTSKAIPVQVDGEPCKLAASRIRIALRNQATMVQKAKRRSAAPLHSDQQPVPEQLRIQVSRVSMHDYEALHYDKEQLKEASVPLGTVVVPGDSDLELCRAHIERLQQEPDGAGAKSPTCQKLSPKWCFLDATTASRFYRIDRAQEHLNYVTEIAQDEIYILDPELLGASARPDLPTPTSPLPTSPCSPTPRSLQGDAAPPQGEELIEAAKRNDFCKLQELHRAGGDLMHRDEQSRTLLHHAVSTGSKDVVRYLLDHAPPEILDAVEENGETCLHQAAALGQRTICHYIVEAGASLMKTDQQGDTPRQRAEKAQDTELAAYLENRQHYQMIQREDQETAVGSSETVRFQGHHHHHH

Row | Compound | IC50 (human DGKζ; [3]) [µM] | IC50 (human DGKα; [4]) [µM] | EC50 ([1]; human whole blood, anti-CD3 plus anti-CD28 stimulation, 24 hours, read-out: IFN-γ Whole Blood EC50) [µM] | IC50 (human DGKζ; [6]) [µM] | IC50 (human DGKα; [7]) [µM] | EC50 ([1]; Homo sapiens, 24 h, human whole blood, anti-CD3 plus anti-CD28 stimulation, 24 hours, read-out: IFN-γ Whole Blood EC50) [µM] | EC50 [1, 2] [µM] | EC50 [1, 5] [µM]
1 | CC[C@H]1CN(C(C)c2ccc(OCC3CC3)cc2F)[C@H](CC)CN1c1nc(=O)n(C)c2ccc(C#N)nc12 (single isomer, unassigned) [Example 33] | 5.93 | 2.56 | – | – | – | – | 3.83 | –
2 | CC[C@@H]1CN(c2nc(=O)n(C)c3ccc(C#N)nc23)[C@@H](C)CN1C(C)c1ccc(OC(C)C)cc1 (single isomer, unassigned) [Example 52] | 0.052 | 0.23 | – | – | – | – | 0.053 | –
3 | CC[C@H]1CN(C(C)c2ccc(C3CC3)cc2)[C@H](CC)CN1c1nc(=O)n(C)c2ccc(C#N)nc12 (single isomer, unassigned) [Example 28] | 2.65 | 1.57 | – | – | – | – | 2.04 | –
4 | CC[C@H]1CN(C(C)c2ccc(OC(F)(F)F)c(F)c2)[C@H](CC)CN1c1nc(=O)n(C)c2ccc(C#N)nc12 (single isomer, unassigned) [Example 31] | 0.96 | 1.7 | – | – | – | – | 0.27 | –
5 | CC[C@H]1CN(C(C)c2ccc(C(C)(C)C#N)cc2)[C@H](CC)CN1c1nc(=O)n(C)c2ccc(C#N)nc12 (stereo partly drawn) [Example 197, 4-((2S,5R)-4-(1-(4-(2-cyanopropan-2-yl)phenyl)ethyl)-2,5-diethylpiperazin-1-yl)-1-methyl-2-oxo-1,2-dihydropyrido[3,2-d]pyrimidine-6-carbonitrile] | 0.22 | 1.47 | – | – | – | – | 0.31 | –
6 | CC[C@H]1CN(C(C)c2ccc(C(F)(F)F)cc2)[C@H](C)CN1c1nc(=O)n(C)c2ccc(C#N)nc12 (stereo partly drawn) [Example 116, 4-((2S,5R)-2-ethyl-5-methyl-4-(1-(4-(trifluoromethyl)phenyl)ethyl)piperazin-1-yl)-1-methyl-2-oxo-1,2-dihydropyrido[3,2-d]pyrimidine-6-carbonitrile] | 2.11 | 1 | – | – | – | – | 1.43 | –
7 | CC[C@@H]1CN(c2nc(=O)n(C)c3ccc(C#N)nc23)[C@@H](C)CN1C(c1ccc(F)cc1)c1ccccn1 (single isomer, unassigned) [Example 87] | 0.31 | 0.028 | – | – | – | – | 0.44 | –
8 | CC[C@H]1CN(C(C)c2ccc(OC)cc2)[C@H](CC)CN1c1nc(=O)n(C)c2ccc(C#N)nc12 (single isomer, unassigned) [Example 17] | 2.14 | 0.32 | – | – | – | – | – | 2.89
9 | CC[C@H]1CN(C(C)c2ccc(OC(C)C)cc2)[C@H](CC)CN1c1nc(=O)n(C)c2ccc(C#N)nc12 (single isomer, unassigned) [Example 19] | 3.1 | 4.05 | – | – | – | – | – | 2.06
10 | C[C@H]1CN(C(c2ccc(F)cc2)c2ccc(C(F)(F)F)cn2)[C@H](CO)CN1c1nc(=O)n(C)c2ccc(C#N)nc12 (single isomer, unassigned) [Example 182] | 2.03 | 0.43 | – | – | – | – | 2.53 | –
11 | CC[C@H]1CN(C(C)c2ccc(C(F)(F)F)nc2)[C@H](CC)CN1c1nc(=O)n(C)c2ccc(C#N)nc12 (single isomer, unassigned) [Example 44] | 0.021 | 0.085 | – | – | – | – | 0.26 | –
12 | CC[C@H]1CN(C(C)c2ccc(C3CC3)cc2F)[C@H](CC)CN1c1nc(=O)n(C)c2ccc(C#N)nc12 (single isomer, unassigned) [Example 41] | 1.08 | 2.27 | – | – | – | – | 0.47 | –
13 | C[C@@H]1CN(c2nc(=O)n(C)c3ccc(C#N)nc23)[C@@H](C)CN1C(c1ccc(Cl)cc1)c1ccc(Cl)cc1 [Example 373, 4-((2 S, 5R)-4-(bis(4-chlorophenyl)methyl)-2,5-dimethylpiperazin-1-yl)-1-methyl-2-oxo-1,2-dihydropyrido[3,2-d]pyrimidine-6-carbonitrile] | – | – | – | 2.55 | 0.86 | 0.17 | – | –

Continued, in another order:

Row | IC50 (human DGKζ; [3]) [µM] | IC50 (human DGKα; [4]) [µM] | EC50 ([1]; human whole blood, anti-CD3 plus anti-CD28 stimulation, 24 hours, read-out: IFN-γ Whole Blood EC50) [µM] | IC50 (human DGKζ; [6]) [µM] | IC50 (human DGKα; [7]) [µM] | EC50 ([1]; Homo sapiens, 24 h, human whole blood, anti-CD3 plus anti-CD28 stimulation, 24 hours, read-out: IFN-γ Whole Blood EC50) [µM] | Compound | EC50 [1, 2] [µM] | EC50 [1, 5] [µM]
14 | 2.38 | 17.8 | – | – | – | – | CC(c1ccc2c(c1)OC(F)(F)O2)N1C[C@H](C)N(c2nc(=O)n(C)c3ccc(C#N)nc23)C[C@H]1C (single isomer, unassigned) [Example 167] | 3.85 | –
15 | 0.12 | 0.46 | – | – | – | – | CC[C@@H]1CN(c2nc(=O)n(C)c3ccc(C#N)nc23)[C@@H](C)CN1C(C)c1ccc(C2CC2)cc1F (single isomer, unassigned) [Example 92] | 0.35 | –
16 | 0.76 | 1.33 | – | – | – | – | CC(c1ccc(C2CC2)cc1)N1C[C@H](C)N(c2nc(=O)n(C)c3ccc(C#N)nc23)C[C@H]1C (single isomer, unassigned) [Example 4] | 0.97 | –
17 | 0.23 | 0.002 | – | – | – | – | CC[C@@H]1CN(c2nc(=O)n(C)c3ccc(C#N)nc23)[C@@H](CC)CN1Cc1ccc(OC(F)(F)F)cc1F [Example 27, 4-((2S,5R)-2,5-diethyl-4-(2-fluoro-4-(trifluoromethoxy)benzyl)piperazin-1-yl)-1-methyl-2-oxo-1,2-dihydropyrido[3,2-d]pyrimidine-6-carbonitrile] | – | 0.62
18 | 0.13 | 0.039 | – | – | – | – | C[C@@H]1CN(c2nc(=O)n(C)c3ccc(C#N)nc23)[C@@H](C)CN1C(c1ccc(F)cc1)c1nc(C2CC2)no1 (single isomer, unassigned) [Example 106] | 0.24 | –
19 | 0.96 | 12.4 | – | – | – | – | C[C@@H]1CN(c2nc(=O)n(C)c3ccc(C#N)nc23)[C@@H](C)CN1Cc1cc(F)c(F)c(F)c1 [Example 130, 4-((2S,5R)-2,5-dimethyl-4-(3,4,5-trifluorobenzyl)piperazin-1-yl)-1-methyl-2-oxo-1,2-dihydropyrido[3,2-d]pyrimidine-6-carbonitrile] | – | 4.07
20 | 1.41 | 4.5 | – | – | – | – | C[C@@H]1CN(c2nc(=O)n(C)c3ccc(C#N)nc23)[C@@H](C)CN1Cc1ccc2c(c1)OC(F)(F)O2 [Example 135, 4-((2S,5R)-4-((2,2-difluorobenzo[d][1,3]dioxol-5-yl)methyl)-2,5-dimethylpiperazin-1-yl)-1-methyl-2-oxo-1,2-dihydropyrido[3,2-d]pyrimidine-6-carbonitrile] | – | 10.7
21 | 0.34 | 0.12 | – | – | – | – | C[C@@H]1CN(c2nc(=O)n(C)c3ccc(C#N)nc23)[C@@H](C)CN1C(c1ccc(OC(F)(F)F)cc1)c1cc(C2CC2)on1 (single isomer, unassigned) [Example 164] | – | 0.65
22 | 0.14 | 0.59 | – | – | – | – | COC[C@@H]1CN(c2nc(=O)n(C)c3ccc(C#N)nc23)[C@@H](C)CN1C(C)c1ccc(C(F)(F)F)cc1 (single isomer, unassigned) [Example 174] | 0.14 | –
23 | 0.19 | 0.083 | – | – | – | – | CC(C)c1ccc(CN2C[C@H](C)N(c3nc(=O)n(C)c4ccc(C#N)nc34)C[C@H]2C)cc1 [Example 137, 4-((2S,5R)-4-(4-isopropylbenzyl)-2,5-dimethylpiperazin-1-yl)-1-methyl-2-oxo-1,2-dihydropyrido[3,2-d]pyrimidine-6-carbonitrile] | – | 2.65
24 | – | – | 0.058 | 0.097 | 0.03 | – | CC(c1ccc(OC(C)(C)C#N)cc1)N1C[C@H](C)N(c2nc(=O)n(C)c3ccc(C#N)nc23)C[C@H]1C (stereo partly drawn) [Example 376, 4-((2S,5R)-4-(1-(4-((2-cyanopropan-2-yl)oxy)phenyl)ethyl)-2,5-dimethylpiperazin-1-yl)-1-methyl-2-oxo-1,2-dihydropyrido[3,2-d]pyrimidine-6-carbonitrile] | – | –
25 | 0.054 | 0.27 | – | – | – | – | CC[C@@H]1CN(c2nc(=O)n(C)c3ccc(C#N)nc23)[C@@H](C)CN1C(C)c1ccc(C(F)(F)F)cc1F (single isomer, unassigned) [Example 58] | 0.022 | –
26 | 0.36 | 0.18 | – | – | – | – | CC(c1ccc(C(F)(F)F)cc1)N1C[C@H](C)N(c2nc(=O)n(C)c3ccc(C#N)nc23)C[C@H]1C (single isomer, unassigned) [Example 140] | 0.43 | –
27 | 0.038 | 0.094 | – | – | – | – | C[C@@H]1CN(c2nc(=O)n(C)c3ccc(C#N)nc23)[C@@H](C)CN1C(c1ccc(F)cc1)c1nc(C2CC2)cs1 (single isomer, unassigned) [Example 159] | 0.25 | –
28 | 0.96 | 0.25 | – | – | – | – | CC[C@@H]1CN(c2nc(=O)n(C)c3ccc(C#N)nc23)[C@@H](C)CN1C(c1ccc(F)cc1)c1ccon1 (single isomer, unassigned) [Example 74] | 0.43 | –
29 | 1.15 | 0.056 | – | – | – | – | C[C@@H]1CN(c2nc(=O)n(C)c3ccc(C#N)nc23)[C@@H](C)CN1C(c1ccc(F)cc1)c1ccon1 (single isomer, unassigned) [Example 162] | 1.85 | –
30 | 0.23 | 0.7 | – | – | – | – | CC[C@@H]1CN(c2nc(=O)n(C)c3ccc(C#N)nc23)[C@@H](CC)CN1Cc1ccc2c(c1)OC(F)(F)O2 [Example 13, 4-((2S,5R)-4-((2,2-difluorobenzo[d][1,3]dioxol-5-yl)methyl)-2,5-diethylpiperazin-1-yl)-1-methyl-2-oxo-1,2-dihydropyrido[3,2-d]pyrimidine-6-carbonitrile] | – | 2.12
31 | 0.1 | 0.26 | – | – | – | – | CC(c1ccc(F)c(F)c1)N1C[C@H](C)N(c2nc(=O)n(C)c3ccc(C#N)nc23)C[C@H]1C (single isomer, unassigned) [Example 148] | 0.57 | –

From patent US11584747B2, “Substituted pyridopyrimidinonyl compounds useful as T cell activators” (BRISTOL-MYERS SQUIBB COMPANY, priority 2019, dated 2023)
